Assay [1] concerns Acinetobacter baumannii. Put plainly: Antibacterial activity against ciprofloxacin-resistant Acinetobacter baumannii BAA-1605 at 10 uM by disc diffusion method. The following applies: read-out: DIZ. The format is functional. Background: A growth-free zone around the sample is the usual read-out of agar diffusion tests.
A further assay has as its system Enterococcus faecium. Put plainly: Antibacterial activity against vancomycin-resistant Enterococcus faecium ATCC 700221 at 10 uM by disc diffusion method. The format is functional. The following applies: read-out: DIZ.
Assay [2] can be described thus: Antibacterial activity against vancomycin-intermediate resistant Staphylococcus aureus Mu50 ATCC 700699 at 10 uM by disc diffusion method. It is filed as functional, Staphylococcus aureus subsp. aureus Mu50. The following applies: read-out: DIZ.
Assay [3] has as its system Staphylococcus aureus. Put plainly: Antibacterial activity against methicillin-susceptible Staphylococcus aureus ATCC 29213 at 10 uM by disc diffusion method. The following applies: read-out: DIZ. The format is functional.
Another assay concerns Enterobacter cloacae. Put plainly: Antibacterial activity against Enterobacter cloacae ATCC 23355 at 10 uM by disc diffusion method. It is filed as functional. The settings on record: read-out: DIZ.
The next assay has as its system Enterococcus faecalis. Put plainly: Antibacterial activity against vancomycin-susceptible Enterococcus faecalis ATCC 29212 at 10 uM by disc diffusion method. It is filed as functional. The settings on record: read-out: DIZ.
Assay [4] in a line: Antibacterial activity against Bacillus anthracis Sterne 34F2 at 10 uM by disc diffusion method. The format is functional, Bacillus anthracis str. Sterne. The settings on record: read-out: DIZ.
The subject of the next assay is Klebsiella pneumoniae. Put plainly: Antibacterial activity against ESBL-producer Klebsiella pneumoniae K6 700603 at 10 uM by disc diffusion method. It is filed as functional. The following applies: read-out: DIZ.
In a further assay the test system is Pseudomonas aeruginosa. Put plainly: Antibacterial activity against Pseudomonas aeruginosa ATCC 15442 at 10 uM by disc diffusion method. It is filed as functional. The settings on record: read-out: DIZ.
Assay [5] has as its system Staphylococcus aureus. Put plainly: Antibacterial activity against methicillin-resistant Staphylococcus aureus BAA-1747 at 10 uM by disc diffusion method. It is filed as functional. The following applies: read-out: DIZ.
Assay [6] deals with Staphylococcus epidermidis. Put plainly: Antibacterial activity against Staphylococcus epidermidis ATCC 14990 at 10 uM by disc diffusion method. The format is functional. The following applies: read-out: DIZ.
Assay [7] has as its system Acinetobacter baumannii. Put plainly: Antibacterial activity against Acinetobacter baumannii ATCC 19606 at 10 uM by disc diffusion method. The settings on record: read-out: DIZ. It is filed as functional.
The subject of assay [8] is Staphylococcus aureus. Put plainly: Bactericidal activity against methicillin-resistant Staphylococcus aureus BAA-1747 by broth microdilution method. The format is functional. On the technique in general: In broth dilution the organism is exposed to a series of concentrations in liquid medium.
Assay [9] relates to Staphylococcus aureus. Put plainly: Ratio of MBC to MIC for methicillin-resistant Staphylococcus aureus BAA-1747. The format is functional.
Assay [10] concerns Staphylococcus aureus. Put plainly: Bactericidal activity against methicillin-susceptible Staphylococcus aureus ATCC 29213 by broth microdilution method. It is filed as functional.
The test system of assay [11] is Staphylococcus aureus. Put plainly: Antibacterial activity against methicillin-resistant Staphylococcus aureus BAA-1747 by broth microdilution method. The format is functional.
Assay [12] has as its system Staphylococcus aureus. Put plainly: Antibacterial activity against methicillin-susceptible Staphylococcus aureus ATCC 29213 by broth microdilution method. It is filed as functional.
Assay [13] concerns Staphylococcus aureus. Put plainly: Ratio of MBC to MIC for methicillin-susceptible Staphylococcus aureus ATCC 29213. It is filed as functional.
Assay [14] in a line: Antibacterial activity against vancomycin-intermediate resistant Staphylococcus aureus Mu50 ATCC 700699 by broth microdilution method. The format is functional, Staphylococcus aureus subsp. aureus Mu50.
Assay [15] deals with Staphylococcus aureus. Put plainly: Ratio of MBC to MIC for vancomycin-intermediate resistant Staphylococcus aureus Mu50 ATCC 700699. The format is functional.
Assay [16] is described as follows: Bactericidal activity against vancomycin-intermediate resistant Staphylococcus aureus Mu50 ATCC 700699 by broth microdilution method. The format is functional, Staphylococcus aureus subsp. aureus Mu50.

Values after ≈ are worked out from the molar mass of the structure shown.

A word on the MBC: it is the smallest concentration meeting the test's criterion for killing. The low end stands for more potent killing, the high end for less potent killing. A word on the MIC: it is the lowest concentration that inhibits growth of the organism.

For `CCC(C)SN1CCN(c2cc3c(cc2F)c(=O)c(C(=O)O)cn3C2CC2)CC1` (stereo unspecified), the zone of inhibition at 10 µM in the assay with Acinetobacter baumannii [1] came out at 0 mm; with Enterococcus faecium, 8 mm; in [2], 11 mm; with Staphylococcus aureus [3], 24 mm; in the assay on Enterobacter cloacae, 23 mm; with Enterococcus faecalis, 22 mm. Also, the zone of inhibition at 10 µM amounted to 35 mm in assay [4]; 20 mm in the assay with Klebsiella pneumoniae; 27 mm in the assay on Pseudomonas aeruginosa; 23 mm in the assay on Staphylococcus aureus [5]; 32 mm in [6]; 22 mm in the assay on Acinetobacter baumannii [7].

`CCSN1CCN(c2cc3c(cc2F)c(=O)c(C(=O)O)cn3C2CC2)CC1`: the zone of inhibition at 10 µM was 0 mm in the assay with Acinetobacter baumannii [1]; 0 mm in the assay on Enterococcus faecium; 11 mm in assay [2]; 24 mm with Staphylococcus aureus [3]; 25 mm in the assay on Enterobacter cloacae; 25 mm in the assay with Enterococcus faecalis. Moreover, the zone of inhibition at 10 µM came out at 37 mm in assay [4]; 23 mm in the assay with Klebsiella pneumoniae; 32 mm in the assay with Pseudomonas aeruginosa; 22 mm in the assay with Staphylococcus aureus [5]; 32 mm in assay [6]; 24 mm with Acinetobacter baumannii [7].

In the case of `O=C(O)c1cn(C2CC2)c2cc(N3CCN(Sc4ccccc4)CC3)c(F)cc2c1=O`, the zone of inhibition at 10 µM in the assay with Acinetobacter baumannii [1] is 0 mm; in the assay on Enterococcus faecium, 10 mm; in assay [2], 12 mm; in the assay with Staphylococcus aureus [3] it was 21 mm; in the assay with Enterobacter cloacae it was 26 mm; with Enterococcus faecalis it was 20 mm. Also, the zone of inhibition at 10 µM amounted to 36 mm in assay [4]; 20 mm with Klebsiella pneumoniae; 27 mm in the assay on Pseudomonas aeruginosa; 22 mm in the assay with Staphylococcus aureus [5]; 23 mm in [6]; 23 mm in the assay on Acinetobacter baumannii [7].

As to `CCCCCCSN1CCN(c2cc3c(cc2F)c(=O)c(C(=O)O)cn3C2CC2)CC1`, the zone of inhibition at 10 µM worked out at 0 mm with Acinetobacter baumannii [1]; 8 mm in the assay with Enterococcus faecium; 9 mm in [2]; 18 mm with Staphylococcus aureus [3]; 19 mm in the assay on Enterobacter cloacae; 15 mm in the assay on Enterococcus faecalis. The zone of inhibition at 10 µM in assay [4] was determined as 30 mm; in the assay on Klebsiella pneumoniae, 16 mm; in the assay on Pseudomonas aeruginosa it was 23 mm; in the assay on Staphylococcus aureus [5] it was 18 mm; in [6] it was 26 mm; in the assay with Acinetobacter baumannii [7], 15 mm.

Consider `CN[C@H](CC(C)C)C(=O)N[C@H]1C(=O)N[C@@H](CC(N)=O)C(=O)N[C@H]2C(=O)N[C@H]3C(=O)N[C@H](C(=O)N[C@H](C(=O)O)c4cc(O)cc(O)c4-c4cc3ccc4O)[C@H](O)c3ccc(c(Cl)c3)Oc3cc2cc(c3O[C@@H]2O[C@H](CO)[C@@H](O)[C@H](O)[C@H]2O[C@H]2C[C@](C)(N)[C@H](O)[C@H](C)O2)Oc2ccc(cc2Cl)[C@H]1O` [VANCOMYCIN], for which the MBC came out at 0.1 µM (≈ 0.145 µg/mL) in the assay with Staphylococcus aureus [8], 0.1 µM (≈ 0.145 µg/mL) in the assay on Staphylococcus aureus [10] and 0.78 µM (≈ 1.13 µg/mL) in assay [16]. In addition, the Ratio in the assay on Staphylococcus aureus [9], in the assay with Staphylococcus aureus [13] and in the assay on Staphylococcus aureus [15] was 1 throughout. The figures for the MIC (in the assay with Staphylococcus aureus [11]; in the assay on Staphylococcus aureus [12]; in assay [14]) were 0.1 µM (≈ 0.145 µg/mL), 0.1 µM (≈ 0.145 µg/mL) and 0.78 µM (≈ 1.13 µg/mL), respectively.

`O=C(O)c1cn(C2CC2)c2cc(N3CCN(Sc4ccc([N+](=O)[O-])cc4)CC3)c(F)cc2c1=O`: the zone of inhibition at 10 µM came out at 0 mm with Acinetobacter baumannii [1]; 8 mm in the assay with Enterococcus faecium; 11 mm in assay [2]; 29 mm with Staphylococcus aureus [3]; 23 mm in the assay with Enterobacter cloacae; 25 mm in the assay with Enterococcus faecalis. In addition, the zone of inhibition at 10 µM in assay [4] turned out to be 32 mm; in the assay on Klebsiella pneumoniae it was 21 mm; in the assay with Pseudomonas aeruginosa it was 27 mm; in the assay with Staphylococcus aureus [5], 24 mm; in assay [6] it was 36 mm; with Acinetobacter baumannii [7], 23 mm.

For `CCCCSN1CCN(c2cc3c(cc2F)c(=O)c(C(=O)O)cn3C2CC2)CC1`, the zone of inhibition at 10 µM in the assay with Acinetobacter baumannii [1] stood at 0 mm; in the assay with Enterococcus faecium, 0 mm; in assay [2] it was 11 mm; with Staphylococcus aureus [3], 22 mm; with Enterobacter cloacae, 25 mm; in the assay on Enterococcus faecalis it was 23 mm. Moreover, the zone of inhibition at 10 µM was determined as 37 mm in [4]; 21 mm in the assay with Klebsiella pneumoniae; 28 mm in the assay on Pseudomonas aeruginosa; 20 mm with Staphylococcus aureus [5]; 34 mm in assay [6]; 22 mm in the assay with Acinetobacter baumannii [7].

In the case of `CC(C)C(C)SN1CCN(c2cc3c(cc2F)c(=O)c(C(=O)O)cn3C2CC2)CC1` (stereo unspecified), the zone of inhibition at 10 µM with Acinetobacter baumannii [1] turned out to be 0 mm; with Enterococcus faecium, 0 mm; in assay [2], 9 mm; in the assay on Staphylococcus aureus [3], 28 mm; in the assay with Enterobacter cloacae it was 29 mm; in the assay on Enterococcus faecalis, 25 mm. Besides, the zone of inhibition at 10 µM in [4] was 32 mm; in the assay on Klebsiella pneumoniae it was 26 mm; in the assay on Pseudomonas aeruginosa, 31 mm; in the assay with Staphylococcus aureus [5] it was 23 mm; in assay [6], 29 mm; with Acinetobacter baumannii [7], 26 mm.

`CC(C)SN1CCN(c2cc3c(cc2F)c(=O)c(C(=O)O)cn3C2CC2)CC1`: the zone of inhibition at 10 µM was 0 mm with Acinetobacter baumannii [1]; 0 mm in the assay on Enterococcus faecium; 10 mm in assay [2]; 21 mm in the assay on Staphylococcus aureus [3]; 25 mm in the assay on Enterobacter cloacae; 23 mm with Enterococcus faecalis. Further, the zone of inhibition at 10 µM in assay [4] came to 36 mm; in the assay with Klebsiella pneumoniae, 23 mm; with Pseudomonas aeruginosa, 31 mm; in the assay with Staphylococcus aureus [5], 23 mm; in [6], 34 mm; with Acinetobacter baumannii [7], 23 mm.

Regarding `O=C(O)c1cn(C2CC2)c2cc(N3CCN(Sc4ccc(Cl)cc4)CC3)c(F)cc2c1=O`, the zone of inhibition at 10 µM in the assay on Acinetobacter baumannii [1] stood at 0 mm; with Enterococcus faecium it was 8 mm; in assay [2], 12 mm; in the assay on Staphylococcus aureus [3], 21 mm; in the assay with Enterobacter cloacae, 22 mm; in the assay on Enterococcus faecalis, 20 mm. Besides, the zone of inhibition at 10 µM was determined as 34 mm in [4]; 20 mm with Klebsiella pneumoniae; 26 mm in the assay with Pseudomonas aeruginosa; 17 mm in the assay on Staphylococcus aureus [5]; 29 mm in assay [6]; 20 mm in the assay on Acinetobacter baumannii [7].

As to `CSN1CCN(c2cc3c(cc2F)c(=O)c(C(=O)O)cn3C2CC2)CC1`, the zone of inhibition at 10 µM in the assay with Acinetobacter baumannii [1] was determined as 10 mm; in the assay with Enterococcus faecium it was 0 mm; in assay [2] it was 11 mm; in the assay on Staphylococcus aureus [3] it was 24 mm; with Enterobacter cloacae, 23 mm; in the assay with Enterococcus faecalis, 21 mm. The zone of inhibition at 10 µM was found to be 36 mm in assay [4]; 22 mm in the assay with Klebsiella pneumoniae; 29 mm with Pseudomonas aeruginosa; 23 mm in the assay on Staphylococcus aureus [5]; 33 mm in assay [6]; 23 mm in the assay with Acinetobacter baumannii [7].

For `O=C(O)c1cn(C2CC2)c2cc(N3CCN(Sc4ccccc4[N+](=O)[O-])CC3)c(F)cc2c1=O`, the zone of inhibition at 10 µM is 0 mm in the assay on Acinetobacter baumannii [1]; 0 mm in the assay on Enterococcus faecium; 0 mm in assay [2]; 18 mm in the assay with Staphylococcus aureus [3]; 19 mm in the assay with Enterobacter cloacae; 20 mm with Enterococcus faecalis. For the same compound, the zone of inhibition at 10 µM in assay [4] amounted to 27 mm; in the assay on Klebsiella pneumoniae it was 9 mm; in the assay with Pseudomonas aeruginosa, 9 mm; with Staphylococcus aureus [5] it was 19 mm; in [6], 23 mm; in the assay with Acinetobacter baumannii [7], 19 mm.

The record behind these values is ChEMBL document CHEMBL3864142, “Allicin-inspired thiolated fluoroquinolones as antibacterials against ESKAPE pathogens” (2016).
